“Also recorded” adds a separate entry of the source.
Tests used:
[1] = test system: HEI-OC1 cells; experiment: Cisplatin cytotoxicity in inner ear sensory cells; type: cell-based, mouse; conditions: concentration used in subsequent experiments to ensure IC 50; 24 hours; read-out: IC 50 on cell viability
Procedure: House Ear Institute-Organ of Corti 1 (HEI-OC1) cells provided by Y J. Seo (Yonsei University, wonju, Korea) and F. Kalinec, (House Ear Institute, (Los Angeles, Calif., USA) were cultured in high-glucose Dulbecco's modified Eagle's medium (DMEM; Lonza, USA) supplemented with 10% Fetal bovine serum (FBS; Gibco BRL, USA) and 50 U/ml gamma-interferon (PEPRO TECH, INC. USA) without any antibiotics in a permissive condition (33° C., 10% CO2). For the non-permissive condition, cultured cells were cultured in the permissive condition for a certain period (Kalinec G, Thein P, Park C, Kalinec F. HEI-OC1 cells as a model for investigating drug cytotoxicity. […] Growth curves were performed to identify the growth patterns of cells in each condition. Cells cultured at 33° C., in a 10% CO2 atmosphere condition were recorded on day 0 after cell counting before seeding. Cells were recovered stripped daily from the cell dish and enumerated. This was done then, cell counted, confirmed for up to 14 days. Following the shift, cells were enumerated daily for 14 days. As explained above, HEI-OC1 cells were cultured in permissive conditions (33° C., 10% CO2) until day 5 and then transferred to the non-permissive condition (39° C., 5% CO2).
High-glucose DMEM supplemented with 0.5% FBS was used. […]

[2] = test system: HEI-OC1 cells; experiment: Cell viability with cisplatin and probucol (oto-protection); type: cell-based, mouse
Procedure: House Ear Institute-Organ of Corti 1 (HEI-OC1) cells provided by Y J. Seo (Yonsei University, wonju, Korea) and F. Kalinec, (House Ear Institute, (Los Angeles, Calif., USA) were cultured in high-glucose Dulbecco's modified Eagle's medium (DMEM; Lonza, USA) supplemented with 10% Fetal bovine serum (FBS; Gibco BRL, USA) and 50 U/ml gamma-interferon (PEPRO TECH, INC. USA) without any antibiotics in a permissive condition (33° C., 10% CO2). For the non-permissive condition, cultured cells were cultured in the permissive condition for a certain period (Kalinec G, Thein P, Park C, Kalinec F. HEI-OC1 cells as a model for investigating drug cytotoxicity. Hearing Res. 2016; 335:105-117. doi:10.1016/j.heares.2016.02.019). Growth curves were performed to identify the growth patterns of cells in each condition. Cells cultured at 33° C., in a 10% CO2 atmosphere condition were recorded on day 0 after cell counting before seeding. Cells were recovered stripped daily from the cell dish and enumerated. This was done then, cell counted, confirmed for up to 14 days. Following the shift, cells were enumerated daily for 14 days. As explained above, HEI-OC1 cells were cultured in permissive conditions (33° C., 10% CO2) until day 5 and then transferred to the non-permissive condition (39° C., 5% CO2).
Cisplatin was from Sigma Chemical Co. (St. Louis, Mo., USA). […]

[3] = test system: spiral ganglion neurons (SGNs); experiment: Light sheet microscopy quantification of spiral ganglion neuron (SGN) density in cochlea; type: in vivo, guinea pig
Procedure: Harvested temporal bones were immersed in 4% para-formaldehyde overnight at 4° C., before being decalcified for 14-18 days in 10% EDTA. They were then rinsed with Sorenson's buffer, dehydrated in a series of 50, 75, 90 and 100% ethanol (8-12 h each step), and immersed in Spalteholz solution for 24 h, to render the sample optically transparent. Samples were then imaged using a custom light-sheet fluorescence microscope (LSFM), based on the setup described by Santi et al. (2009) (Santi P A. Light Sheet Fluorescence Microscopy. J Histochem Cytochem. 2010; 59(2):129-138. doi:10.1369/0022155410394857), where ‘virtual slices’ of the inner ear were imaged at […] steps in the axial plane, detailed in Brown et al. (2016) (Brown D J, Pastras C J, Curthoys I S, Southwell C S, Roon L V. Endolymph movement visualized with light sheet fluorescence microscopy in an acute hydrops model. Hearing Res. 2016; 339 (PloS one 7 2012):112-124. doi:10.1016/j.heares.2016.06.007), providing a ‘z-stack’ of between 300 and 1000 virtual slice images. LSFM images were analyzed by a blinded investigator, for later comparison to the functional data and treatment. LSFM z-stacks were analyzed using ImageJ software, with 3D volumes segmented for volume analysis using the Segmentation3D plugin. TIFF files collected from the light sheet microscope were reconstructed into representative 3D images. […]

[4] = test system: guinea pig model of ototoxicity; experiment: Experimental Example 3: round window CAP thresholds after kanamycin and furosemide ototoxicity; type: in vivo, guinea pigs (Cavia porcellus)
From the text: The animal was then removed from isoflurane, and allowed to recover slowly under close observation. […] Animals were then deeply anaesthetized, and euthanized via cardiac fixation for temporal bones harvesting.

[5] = test system: guinea pig model of ototoxicity; experiment: Experimental Example 4: CAP thresholds in ototoxicity animal model with kanamycin and furosemide; type: in vivo, guinea pigs (Cavia porcellus); conditions: for difference of CAP between ototoxicity and ototoxicity with probucol sides: day 14 post-treatment
Procedure: Experiments were performed on 9 adult guinea pigs (Cavia porcellus) of either sex with body weights between 250 and 350 g. All experimental procedures were approved by The University of Curtin Animal Ethics Committee.
For all experiments, each animal first underwent a recovery surgery at day ‘zero’ to inject.
For the recovery surgery, each animal was given a 0.05 ml subcutaneous injection of Temgesic (Buprenorpherine; Reckitt Benckiser, Auckland NZ) and 0.1 ml of Atrosine (0.6 mg/ml atropine sulphate; Apex Laboratories, NSW, Australia) before being anesthetized using isoflurane (2-5%). The temperature was maintained using an electric heating pad, and lignocaine was used as a local anesthetic. While using aseptic techniques, animals were mounted on a custom ear-bar setup, and the left bulla surgically opened via a dorsal approach providing a view of the left round window, using aseptic techniques. Before the drug administrations, the AgCl ball-electrode (reference in the neck) was placed on the round window for recording compound action potential (CAP) responses (Brown D J, Chihara Y, Curthoys I S, Wang Y, Bos M. Changes in cochlear function during acute endolymphatic hydrops development in guinea pigs. Hearing Res. 2013; 296 (J. Neurophysiol. 101 2009):96-106. doi:10.1016/j.heares.2012.12.004; Brown D J, Pastras C J, Curthoys I S, Southwell C S, Roon L V. Endolymph movement visualized with light sheet fluorescence microscopy in an acute hydrops model. Hearing Res. 2016; 339 (PloS one 7 2012):112-124. doi:10.1016/j.heares.2016.06.007; and Brown D J, Sokolic L, Fung A, Pastras C J. Response of the Inner Ear to Lipopolysaccharide Introduced Directly into Scala Media. Hearing Res. 2018; 370 (Otol Neurotol 32 2011):105-112. doi:10.1016/j.heares.2018.10.007).
The bulla opening was resealed with dental cement before the overlying skin was sutured. The animal was then removed from isoflurane, and allowed to recover slowly under close observation. During recovery, the animal was given a subsequent 0.05 ml i.p. dose of Temgesic, along with an oral delivery of 1 ml Ibuprofen (40 mg/ml; Reckitt Benckiser Pty Ltd, Australia). Animals were then allowed to recover for 14 days (±3) days. For following CAP threshold measurements after 14 days, the bulla was re-opened with same procedures. Thereafter, animals were re-anaesthetized and mounted on the ear-bars, for a repeated measure of CAP thresholds described previously. Animals were then deeply anaesthetized, and euthanized via cardiac fixation for temporal bones harvesting.
The standard deviation of CAP thresholds was measured at day 0.

Row | SMILES | IC50 [1] | cell survival compared with control ([2]; probucol 20 μM and 50 μM with cisplatin, 24 h) | cellular mitogenesis compared with control ([2]; probucol 100 μM, attributed to high concentration of vehicle DMSO) | density of SGNs in the basal turn versus ototoxicity alone group ([3]; basal turn of cochlea, significant) | effect on hair cell damages by ototoxicity drugs ([3]; guinea pig, in vivo) | mean difference between left and right CAP thresholds ([4]; 2 kHz, insignificant) | hearing loss (CAP thresholds compared to baseline), probucol-treated cochleae ([4]; about 100 μL probucol-gel on round window, after kanamycin and furosemide, significant at all frequencies except 6 and 10 kHz) | average CAP threshold compared to non-probucol treated cochlea ([4]; at 6 kHz and 10 kHz) | difference of CAP between ototoxicity and ototoxicity with probucol sides ([5]; 6 kHz, probucol injected into bulla around RWM) | difference of CAP between ototoxicity and ototoxicity with probucol sides ([5]; 10 kHz) | difference of CAP between ototoxicity and ototoxicity with probucol sides ([5]; 14 kHz) | hearing protection in the ototoxicity guinea pig model ([5]; guinea pig, in vivo) | thresholds of hearing (CAP) versus control side ([5]; significant only at 6 and 10 kHz)
1 | N.N.[Cl][Pt][Cl] [cisplatin] | ~20 µM |  |  |  |  |  |  |  |  |  |  |  | 
2 | CC(C)(Sc1cc(C(C)(C)C)c(O)c(C(C)(C)C)c1)Sc1cc(C(C)(C)C)c(O)c(C(C)(C)C)c1 [probucol, 2,6-ditert-butyl-4-[2-(3,5-ditert-butyl-4-hydroxyphenyl)sulfanylpropan-2-ylsulfanyl]phenol] |  | promoted the cell survival | significant decrease in cellular mitogenesis | significantly larger density; also recorded: kept not to be injured | protective effect | 3 dB | 11-40 dB | significantly lower | 23.4±9.49 dB | 21.89 ± 7.72 dB | 16.56±4.15 dB | hearing protection effect | better thresholds of hearing
